Reference: patent publication US12038433B2, “Methods and apparatus for high-throughput screening for testing permeability and retention of compounds across biological barriers” (Board of Regents, The University of Texas System, priority 2019, dated 2024)

Assays:
[1] = 96-well plate permeation study of doxycycline, skin measured with mass spec pen; format: in vitro ADME; conditions: 24 hours, different concentrations applied
Description: A permeation study was done using the 96-well plates screening method over a course of 24 hours. Doxycycline at different concentrations was used as a model drug. After 24 hours, the receptor fluid was removed, and the plates were disassembled. The mass spec pen (described by Zhang et al. and Sans et al.) was used to measure the amount of doxycycline on the top layers of the skin (epidermis side) and on the bottom layers of the skin (dermis side) by flipping the skin upside down (26, 27).

[2] = Skin retention analysis of SRB by two-photon-induced fluorescence imaging (FC vs HTS); format: in vitro ADME, human; conditions: surface down to 150 μm, after 8 h (FIG. 8)
Description: A two-photon-induced fluorescence imaging was used to determine the retention of SRB in the skin using a Prairie Technologies Ultimalntravital 2PA confocal microscope system (Park et al., 2008; Denk et al., 1990). The microscope objective was an Olympus® 10×, 0.30 NA, UMPlanFL N water immersion lens. Two-photon laser excitation was provided by a Spectra-Physics Tsunami® Ti:Sapphire laser with a τP=150 fs and P=108 mW. The laser was tuned to 1000 nm, since SRB excites at 550 nm and no skin autofluorescence is observed at this wavelength. Four fluorescence channels were detected simultaneously during imaging. The photomultiplier tube (PMT) bias voltages for each channel were set to 650 V for channel 1, 650 V for channel 2 (where SRB is detected), 800 V for channel 3 (where we can measure the autofluorescence of the skin), and 800 V for channel 4. Skin autofluorescence or second harmonic generation of collagen were detected in channels 3 and 4, respectively (Roberts et al., 2011). The fluorescence emission of SRB was recorded in channel 2 (λ=595±35 nm) since the wavelength of emission for SRB is 590 nm. Skin images were recorded above the surface of the skin and the maximum fluorescence intensity was considered to be the top layer or surface of the skin since excess of formulation was still present at the top of the skin at the end of the permeation study (8 h). […]

[3] = Permeation of SRB across tape-stripped skin, 96-well HTS compared with Franz cells, receptor fluid fluorescence; format: in vitro ADME, human; conditions: SRB 0.5 mg/ml, 8 h, 32° C., p-value >0.05 (FIG. 7)
Description: “The 96-well plates, with and without bottom, were modified by inserting 2 symmetric and parallel holes in each side of the plate using a drill. The holes were made in order to attach the plates together as a sandwich. The skin was tape-stripped 15 times, rubbing with a thumb three times before each strip (in the same manner as for the Franz cells). Tape-stripping was necessary to allow for drug permeation across the skin and direct quantification in the receptor compartment. […] The receptor fluid analysis was needed to compare permeability of SRB between methods (FC and HTS).”
“The 96-well plate with the bottom was used as the receptor compartment. The volume of each well is 380 μL and the area of diffusion is 0.38 cm^2. The receptor compartment was overfilled with degassed PBS (pH=7.4) to avoid the formation of any bubbles that would hinder drug permeation. […]
The plate was incubated at 32° C. for 1 h. […] After 8 h, the plates were disassembled and the receptor plate was analyzed using a spectrophotometer (Infinite M200 microplate reader, TECAN US Inc, NC, USA) for the quantification of fluorescence intensity (λexcitation=550 nm and λemission=590 nm). Standard solutions of SRB in PBS (pH=7.4) in the range of 500-0.03 μg/ml were prepared and the fluorescence intensity was measured to obtain the calibration curve. […]

[4] = Feasibility in vitro permeation study using squared and flat 384-well plates; format: in vitro ADME; conditions: 8 h, between the 0.5 mg/ml SRB and the 0.05 mg/ml SRB applied, lateral diffusion present
Description: Feasibility studies were conducted using squared and flat 384-well plates with no ridges or projected wells. The plates were assembled the same way as presented in Example 4. […] […] […] Samples were taken after 8 h and measured using fluorescence in a plate reader.

[5] = HTS formulation screening, permeability of SRB across the skin into the receptor fluid (plate reader fluorescence); format: in vitro ADME, human; conditions: not statistically significant (FIG. 10 E)
Description: (§1) Two bottomless 96-well plates from Greiner bio-one were used.
(§2) The receptor plate was sealed with an adhesive film and overfilled with PBS (pH=7.4).
(§3) An 8×9 cm of skin tissue was placed on top of the receptor plate, dermis side in contact with the receptor fluid and stratum corneum up. The donor plate was placed on top of the skin. A 4 kg weight was placed on top and nuts were attached to the plate.
(§4) This sandwich was incubated for 1 hour at 32 deg C. and 75 rpm. After 1 hour, the formulations prepared in Table 1 and containing 0.5 mg/ml of SRB as a model hydrophilic drug were applied in triplicate to the donor wells.
(§5) The receptor compartment was analyzed by fluorescence using a plate reader and the skin was analyzed using 2 photon microscopy, the same way as described in Example 4. Images were collected at 256×256 pixels and 223.78 μm×223.78 μm. The z-axis profile was obtained by acquiring images at every 10 μm down the skin, up to 200 μm. The detailed 2-photon analysis utilized in this study took approximately 2 h (around a minute to 2 min for each well).

[6] = not tape-stripped; cited from earlier work
[7] = HTS formulation screening, retention of SRB in skin layers by 2 photon microscopy (3x2x3 full factorial design); format: in vitro ADME, human
Description: as §1, §2, §3, §4, §5
A 3×2×3 full factorial design was used to design the experiment and statistically analyze the differences in permeation and retention of the formulations applied in the skin.

Which “permeation, amount on top (epidermis side) and bottom (dermis side) layers of the skin” value [1] does the source give for `C[C@H]1c2cccc(O)c2C(=O)C2=C(O)[C@]3(O)C(=O)C(C(N)=O)=C(O)[C@@H](N(C)C)[C@@H]3[C@@H](O)[C@@H]21` [Doxycycline] here?
Its value is “Changes in permeation were detected”.

For `CCN(CC)c1ccc2c(-c3ccc(S(=O)(=O)O)cc3S(=O)(=O)[O-])c3ccc(=[N+](CC)CC)cc-3oc2c1` [SRB, Sulforhodamine B], which “depth profile/Z-axis profile, relative change in fluorescence intensity over every 5 μm depth in the skin, FC vs HTS” value [2] is on record?
Its value is “similar”.

What about the “permeation and distribution of the drug, Franz cells (FC) vs HTS” value [3] of the same molecule?
The value was “almost identical”.

What about the “permeability of SRB across the skin” value [4] of the same molecule?
Its value is “changed”.

And the “amount of drug across the skin, into the receptor solution” value ([5]; OA (oleic acid) in the formulation)?
The value was “also across the skin”.

What about the “amount of SRB across the skin” value ([5]; increasing the concentration of Tween 80) of the same molecule?
Its value is “not across the skin”.

What about the “permeation across intact skin” value [6] of the same molecule?
Its value is “unable to permeate intact skin”.

And the “amount of SRB inside the skin” value ([7]; 5% and 2.5% surfactant concentration compared to no surfactant, post hoc analysis)?
The value was “increases the amount of SRB inside the skin”.

And the “amount of the model drug in the skin layers” value ([7]; DMSO alone compared to 50:50 mixture of DMSO:Propylene glycol)?
The value was “enhances the amount of the model drug in all the skin layers”.

And the “amount of SRB into the skin” value ([7]; DMSO compared to Propylene glycol alone, only at lower depths (100-150 micrometers))?
Its value is “significantly enhance the amount of SRB into the skin”.

And the “amount of drug inside the skin” value ([7]; OA (oleic acid) in the formulation, PG solvent (FIG. 10 A, B))?
Its value is “increased the amount of drug inside the skin”.

What about the “amount of SRB inside the skin” value ([7]; increasing the concentration of Tween 80, PG solvent (FIG. 10 C, D)) of the same molecule?
Its value is “increased the amount of SRB inside the skin”.

And the “Statistically significant variables on the amount of SRB retained” value (“Statistically significant variables” for short) ([7]; skin depth 0 μm, solvent ratio factor)?
Its value is “Solvent ratio (*)”.

And the “Statistically significant variables” value ([7]; skin depth 0 μm, surfactant concentration factor)?
The value was “Surfactant concentration (**)”.

And the “Statistically significant variables” value ([7]; skin depth 20 μm, solvent ratio factor)?
Its value is “Solvent ratio (**)”.

And the “Statistically significant variables” value ([7]; skin depth 20 μm, surfactant concentration factor)?
Its value is “Surfactant concentration (*)”.

And the “Statistically significant variables” value ([7]; skin depth 100 μm, solvent ratio factor)?
Its value is “Solvent ratio (**)”.

What about the “Statistically significant variables” value ([7]; skin depth 100 μm, surfactant concentration factor) of the same molecule?
Its value is “Surfactant concentration (*)”.

And the “Statistically significant variables” value ([7]; skin depth 150 μm)?
Its value is “Solvent ratio (**)”.
